≈ marks a conversion by molar mass, not a printed value.
Tests used:
[1] = system: B. Anthracis; assay: microbe, parasite or virus in culture; format: cell-based; conditions: for inhibition at 3 µM / inhibition at 10 µM / inhibition at 30 µM: Bacillus anthracis; for inhibition at 3 µM: read-out: B. Anthracis 3 μM (growth inhibition); for inhibition at 10 µM: read-out: B. Anthracis 10 μM (growth inhibition); for inhibition at 30 µM: read-out: B. Anthracis 30 μM (growth inhibition)
[2] = system: S. MRSA; assay: microbe, parasite or virus in culture; format: cell-based; conditions: for inhibition at 3 µM / inhibition at 10 µM / inhibition at 30 µM: Staphylococcus aureus, MRSA; for inhibition at 3 µM: read-out: S. MRSA 3 μM (growth inhibition); for inhibition at 10 µM: read-out: S. MRSA 10 μM (growth inhibition); for inhibition at 30 µM: read-out: S. MRSA 30 μM (growth inhibition)
[3] = format: cell-based

Row | Structure (SMILES) | inhibition at 3 µM [1] | inhibition at 10 µM [1] | inhibition at 30 µM [1] | inhibition at 3 µM [2] | inhibition at 10 µM [2] | inhibition at 30 µM [2] | MIC, 25% Serum [3] | MIC, No Serum [3] | B. Anthracis 3 μM (growth inhibition) [1] | B. Anthracis 10 μM (growth inhibition) [1] | B. Anthracis 30 μM (growth inhibition) [1] | S. MRSA 3 μM (growth inhibition) [2] | S. MRSA 10 μM (growth inhibition) [2] | S. MRSA 30 μM (growth inhibition) [2]
1 | O=C(O)[C@H](Cc1ccccc1)N1C(=O)/C(=C\c2ccc(-c3ccc(Cl)c(Cl)c3)o2)NC1=S [Cmpd 48] | -0.39% | 108% | 107% | -16.1% | 80.6% | 104% | 250 µM (≈ 122 µg/mL) | 7.8 µM (≈ 3.8 µg/mL) |  |  |  |  |  | 
2 | O=C(NS(=O)(=O)C(F)(F)F)C(Cc1ccccc1)N1C(=O)/C(=C\c2ccc(-c3ccc(Cl)c(Cl)c3)o2)NC1=S (stereo not drawn) [Cmpd 58] | 69.4% | 98.7% | 97.4% | 0.23% | 81.7% | 94.5% | >250 µM | 7.8 µM (≈ 4.82 µg/mL) |  |  |  |  |  | 
3 | CS(=O)(=O)NC(=O)C(Cc1ccccc1)N1C(=O)/C(=C\c2ccc(-c3ccc(Cl)c(Cl)c3)o2)NC1=S (stereo not drawn) [Cmpd 57] | 45.2% | 96.4% | 90.2% | 3.18% | 30.9% | 58% | >250 µM | 15.6 µM (≈ 8.81 µg/mL) |  |  |  |  |  | 
4 | O=C(O)C(Cc1ccccc1)N1C(=O)/C(=C\c2ccc(Cl)c(Cl)c2)NC1=S (stereo not drawn) [Cmpd 71] | 0.05% | -8.93% | -17.3% | -0.86% | -2.74% | -5.12% | >250 µM | >250 µM |  |  |  |  |  | 
5 | O=C(O)[C@@H](Cc1ccccc1)N1C(=O)/C(=C\c2ccc(-c3ccc(Cl)c(Cl)c3)o2)NC1=S [Cmpd 47] | 9.41% | 107% | 107% | -13.8% | 84.4% | 103% | 250 µM (≈ 122 µg/mL) | 7.8 µM (≈ 3.8 µg/mL) |  |  |  |  |  | 
6 | O=C(O)C(Cc1ccccc1)N1C(=O)/C(=C\c2ccc(-c3ncc(Cl)cc3Cl)o2)NC1=S (stereo not drawn) [Cmpd 72] | -13.5% | 9.07% | 98.1% | -2.17% | -5.02% | 53% | 250 µM (≈ 122 µg/mL) | 62.5 µM (≈ 30.5 µg/mL) |  |  |  |  |  | 
7 | O=C([O-])C(Cc1ccccc1)N1C(=O)/C(=C\c2ccc(-c3ccc(Cl)c(Cl)c3)o2)NC1=S.[Na+] (stereo not drawn) [Cmpd 65] |  |  |  |  |  |  | >250 µM | 7.8 µM | 108.67 | 107.86 | 104.01 | 0.9 | 104.72 | 105.68
8 | O=C(O)C(Cc1ccccc1)N1C(=O)/C(=C\c2ccc(-c3ccccc3)o2)NC1=S (stereo not drawn) [Cmpd 60] | 2.29% | 11.6% | 18% | -2.55% | -5.71% | -8.8% | >250 µM | 125 µM (≈ 52.3 µg/mL) |  |  |  |  |  | 
9 | N#CNC(=O)C(Cc1ccccc1)N1C(=O)/C(=C\c2ccc(-c3cccc(Cl)c3)o2)NC1=S (stereo not drawn) [Cmpd 68] | -1.9% | 6.31% | 12.5% | -0.24% | -1.1% | -0.93% | >250 µM | 125 µM (≈ 59.6 µg/mL) |  |  |  |  |  | 
10 | O=C([O-])C(Cc1ccccc1)N1C(=O)/C(=C\c2ccc(-c3cccc(Cl)c3)o2)NC1=S.[Na+] (stereo not drawn) [Cmpd 67] | 6.01% | 4.51% | 87.6% | 0.37% | -4.15% | -7.41% | >250 µM | 250 µM |  |  |  |  |  | 
11 | O=C(O)C(Cc1ccccc1)N1C(=O)/C(=C\c2ccc(-c3ccnc(Cl)c3)o2)NC1=S (stereo not drawn) [Cmpd 70] | 2.54% | 16% | 4.62% | -0.84% | -1.26% | -1.4% | >250 µM | 125 µM (≈ 56.7 µg/mL) |  |  |  |  |  | 
12 | O=C(O)C(Cc1ccccc1)N1C(=O)/C(=C\c2ccc(-c3ccc(Cl)cc3)o2)NC1=S (stereo not drawn) [Cmpd 38] | 4.99% | 68.9% | 99.7% | -13.5% | -16.9% | 86.6% | >250 µM | 62.5 µM (≈ 28.3 µg/mL) |  |  |  |  |  | 
13 | CCOC(=O)C(Cc1ccccc1)N1C(=O)/C(=C\c2ccc(-c3ccc(Cl)c(Cl)c3)o2)NC1=S (stereo not drawn) [Cmpd 55] |  | -50.8% | -6.41% |  | 0.57% | -2.92% | >250 µM | >250 µM |  |  |  |  |  | 
14 | Cc1oc(=O)oc1COC(=O)C(Cc1ccccc1)N1C(=O)/C(=C\c2ccc(-c3ccc(Cl)c(Cl)c3)o2)NC1=S (stereo not drawn) [Cmpd 64] | -0.01% | 0.22% | -1.34% | 0.71% | -1.48% | -3.34% | >250 µM | >250 µM |  |  |  |  |  | 
15 | O=C1Nc2cc(Cl)c(Br)cc2/C1=C1/NC(=S)N(C(Cc2ccccc2)C(=O)O)C1=O (stereo not drawn) [Cmpd 32] | 11.3% | 40.2% | 98.8% | -11.9% | -19.4% | 93.8% | >250 µM |  |  |  |  |  |  | 
16 | O=C(O)[C@H](Cc1ccccc1)N1C(=O)/C(=C\c2ccc(-c3cc(C(F)(F)F)ccc3Cl)o2)NC1=S [Cmpd 53] | 88.2% | 95.5% | 92.5% | -4.72% | 92.3% | 92.9% | >250 µM | 15.6 µM (≈ 8.13 µg/mL) |  |  |  |  |  | 
17 | O=C(O)C(Cc1ccccc1)N1C(=O)/C(=C\c2ccc(-c3ccc(Cl)nc3Cl)o2)NC1=S (stereo not drawn) [Cmpd 73] |  |  |  |  |  |  | >250 µM | 125 µM (≈ 61 µg/mL) |  |  |  |  |  | 
18 | COc1ccc(-c2ccc(/C=C3/NC(=S)N([C@@H](Cc4ccccc4)C(=O)O)C3=O)o2)cc1Cl [Cmpd 52] | -5.68% | 27.3% | 95.5% | -7.99% | -11.7% | 82.2% | >250 µM | 62.5 µM (≈ 30.2 µg/mL) |  |  |  |  |  | 
19 | CCC(C(=O)O)N1C(=O)/C(=C\c2ccc(-c3ccc(Cl)c(Cl)c3)o2)NC1=S (stereo not drawn) [Cmpd 44] | 4.13% | 97.2% | 94% | -2.47% | 4.53% | 92.9% | >250 µM | 250 µM (≈ 106 µg/mL) |  |  |  |  |  | 
20 | O=C(O)C(Cc1ccccc1)N1C(=O)/C(=C\c2ccc(-c3ccc(Cl)c(Cl)c3)o2)NC1=S (stereo not drawn) [Cmpd 46] |  |  |  |  |  |  | >250 µM | 15.6 µM (≈ 7.6 µg/mL) | 108.4 | 108.46 | 106.96 | −17.39 | 93.71 | 103.37
21 | O=C([O-])C(Cc1ccccc1)N1C(=O)/C(=C\c2ccc(-c3ccc(Cl)c(Cl)c3)o2)NC1=S.[Na+] (stereo not drawn) [Cmpd 66] |  |  |  |  |  |  | >250 µM | 7.8 µM |  |  |  | 0.9 |  | 
22 | NC(=O)C(Cc1ccccc1)N1C(=O)/C(=C\c2ccc(-c3ccc(Cl)c(Cl)c3)o2)NC1=S (stereo not drawn) [Cmpd 54] | 20.6% | 94.8% | 93% | 2.03% | 30.1% | 57.5% | >250 µM | >250 µM |  |  |  |  |  | 
23 | O=C(O)C(Cc1ccccc1)N1C(=O)CNC1=S (stereo not drawn) [Cmpd 61] |  |  |  |  |  |  | >250 µM | >250 µM |  |  |  |  |  | 
24 | N#CNC(=O)C(Cc1ccccc1)N1C(=O)/C(=C\c2ccc(-c3ccc(Cl)c(Cl)c3)o2)NC1=S (stereo not drawn) [Cmpd 69] | 0.13% | 100% | 99.2% | 0.03% | 0.65% | 97.5% | 250 µM (≈ 128 µg/mL) | 15.6 µM (≈ 7.98 µg/mL) |  |  |  |  |  | 
25 | O=C(O)C(Cc1ccccc1)N1C(=O)/C(=C\c2ccc(-c3ccc(Cl)c(Cl)n3)o2)NC1=S (stereo not drawn) [Cmpd 76] |  |  |  |  |  |  | >250 µM | 62.5 µM (≈ 30.5 µg/mL) |  |  |  |  |  | 
26 | CNC(=O)c1ccc(Cl)c(-c2ccc(/C=C3/NC(=S)N(C(Cc4ccccc4)C(=O)O)C3=O)o2)c1Cl (stereo not drawn) [Cmpd 82] |  |  |  |  |  |  | >250 µM | >250 µM |  |  |  |  |  | 
27 | CNC(=O)c1ccc(-c2ccc(/C=C3/NC(=S)N(C(Cc4ccccc4)C(=O)O)C3=O)o2)cc1 (stereo not drawn) [Cmpd 81] |  |  |  |  |  |  | >250 µM | >250 µM |  |  |  |  |  | 
28 | O=C1Nc2ccc(Br)cc2/C1=C1/NC(=S)N(C(Cc2ccccc2)C(=O)O)C1=O (stereo not drawn) [Cmpd 31] |  | 2.5% | 88% |  | -8% | -2.22% | >250 µM | 250 µM (≈ 118 µg/mL) |  |  |  |  |  | 
29 | CCC(C(=O)NS(C)(=O)=O)N1C(=O)/C(=C\c2ccc(-c3ccc(Cl)c(Cl)c3)o2)NC1=S (stereo not drawn) [Cmpd 59] | 6.4% | 6.23% | 19.6% | 1.71% | 2.56% | 0.06% | >250 µM | 125 µM (≈ 62.8 µg/mL) |  |  |  |  |  | 

From patent publication US20140073639A1 (priority 2012, published 2014)
